Measurements as given in patent publication US6534524B1, “Indazole compounds and pharmaceutical compositions for inhibiting protein kinases, and methods for their use” (Agouron Pharmaceuticals, Inc., priority 1999, dated 2003).
Where two headings read alike, the source gives them in different places.

Experiments:
human CHK1 (FL-CHK1) = biological target: T1, human CHK1 (FL-CHK1) (Homo sapiens, UniProt O14757); assay: CHK1 assay (coupled spectrophotometric, Syntide-2); format: biochemical; details: Table 1
T1 construct: C-terminally His-tagged full-length human CHK1 (FL-CHK1); made in house; host or cells: baculovirus/insect cell system
T1 sequence (O14757 1-476): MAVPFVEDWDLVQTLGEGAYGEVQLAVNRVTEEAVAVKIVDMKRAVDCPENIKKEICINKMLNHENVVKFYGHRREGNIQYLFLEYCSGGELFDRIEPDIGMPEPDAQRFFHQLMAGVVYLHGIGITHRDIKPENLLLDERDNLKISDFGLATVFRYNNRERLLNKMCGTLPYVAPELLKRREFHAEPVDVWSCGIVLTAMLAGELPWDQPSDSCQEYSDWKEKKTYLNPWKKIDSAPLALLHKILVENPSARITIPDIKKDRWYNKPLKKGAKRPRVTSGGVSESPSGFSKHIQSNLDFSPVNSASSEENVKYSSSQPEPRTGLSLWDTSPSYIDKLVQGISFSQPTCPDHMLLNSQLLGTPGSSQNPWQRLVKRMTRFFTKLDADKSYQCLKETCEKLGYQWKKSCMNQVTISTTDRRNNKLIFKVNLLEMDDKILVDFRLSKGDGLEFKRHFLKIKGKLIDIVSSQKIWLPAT
From the text: CHK1 Construct for Assay: C-terminally His-tagged full-length human CHK1 (FL-CHK1) was expressed using the baculovirus/insect cell system. […] The protein was purified by conventional chromatographic techniques.
The production of ADP from ATP that accompanies phosphoryl transfer to the synthetic substrate peptide Syntide-2 ([…]) was coupled to oxidation of NADH using phosphoenolpyruvate (PEP) through the actions of pyruvate kinase (PK) and lactic dehydrogenase (LDH). The oxidation of NADH was monitored by following the decrease of absorbance at 340 nm (ε340=6.22 cm^−1 mM^−1) using a HP8452 spectrophotometer. […] Assays were initiated with 10 nM of FL-CHK1. Ki values were determined by measuring initial enzyme activity in the presence of varying concentrations of test compounds. The data were analyzed using Enzyme Kinetic and Kaleidagraph software.

CDK2/Cyclin A = CDK2/Cyclin A (Homo sapiens, UniProt P24941); assay: CDK2/Cyclin A assay ([32P]ATP, Rb fragment); format: biochemical
[1] = system: human umbilical vein endothelial cells (HUVEC); assay: HUVEC proliferation assay (VEGF-stimulated, MTT); format: cell-based; details: Homo sapiens, HUVEC
CDK4/Cyclin D3 complex = CDK4/Cyclin D3 complex (Homo sapiens, UniProt P11802); assay: CDK4/Cyclin D assay ([32P]ATP, Rb fragment)
Sequence of CDK4/Cyclin D3 complex (P11802 whole entry, the tested form may be a part): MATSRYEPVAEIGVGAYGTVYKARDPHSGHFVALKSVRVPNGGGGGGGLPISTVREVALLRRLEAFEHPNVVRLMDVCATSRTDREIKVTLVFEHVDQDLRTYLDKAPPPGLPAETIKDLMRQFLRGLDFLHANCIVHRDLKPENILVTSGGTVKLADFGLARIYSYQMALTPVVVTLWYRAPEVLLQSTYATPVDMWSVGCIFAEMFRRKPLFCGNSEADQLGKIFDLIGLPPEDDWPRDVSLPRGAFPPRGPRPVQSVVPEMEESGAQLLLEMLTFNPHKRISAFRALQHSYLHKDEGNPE
Sequence of CDK4/Cyclin D3 complex (P30281 whole entry partner, the tested form may be a part): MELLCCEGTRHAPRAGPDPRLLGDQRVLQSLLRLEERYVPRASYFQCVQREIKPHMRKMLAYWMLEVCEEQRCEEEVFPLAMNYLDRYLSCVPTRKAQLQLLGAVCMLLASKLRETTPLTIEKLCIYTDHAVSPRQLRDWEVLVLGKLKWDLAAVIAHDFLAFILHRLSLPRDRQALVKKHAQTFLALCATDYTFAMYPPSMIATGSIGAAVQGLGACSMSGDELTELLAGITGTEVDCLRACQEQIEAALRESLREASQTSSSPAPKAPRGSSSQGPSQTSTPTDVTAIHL

[2] = biological target: unphosphorylated VEGF-R2Δ50 (FLVK) (Homo sapiens, UniProt P35968, DEL940-989/E990V); assay: VEGF-R2 coupled spectrophotometric assay, unphosphorylated VEGF-R2Δ50 (FLVK); details: FLVK Ki, Table 1
Sequence of unphosphorylated VEGF-R2Δ50 (FLVK) (P35968 with tags, fused parts or gaps DEL940-989/E990V limits assumed): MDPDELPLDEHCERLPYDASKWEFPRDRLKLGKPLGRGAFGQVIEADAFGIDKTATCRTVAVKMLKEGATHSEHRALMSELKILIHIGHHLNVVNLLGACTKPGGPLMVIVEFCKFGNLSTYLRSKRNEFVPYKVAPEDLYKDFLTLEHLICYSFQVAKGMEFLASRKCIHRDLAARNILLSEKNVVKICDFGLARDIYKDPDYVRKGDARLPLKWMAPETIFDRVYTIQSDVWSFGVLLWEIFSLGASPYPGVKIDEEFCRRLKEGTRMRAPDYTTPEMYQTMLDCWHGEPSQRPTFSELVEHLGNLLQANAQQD

human FGF-R1 = human FGF-R1 (Homo sapiens, UniProt P11362, C488A/C584S/L457V); assay: FGF-R spectrophotometric assay
Sequence of human FGF-R1 (P11362 456-766 L457V/C488A/C584S): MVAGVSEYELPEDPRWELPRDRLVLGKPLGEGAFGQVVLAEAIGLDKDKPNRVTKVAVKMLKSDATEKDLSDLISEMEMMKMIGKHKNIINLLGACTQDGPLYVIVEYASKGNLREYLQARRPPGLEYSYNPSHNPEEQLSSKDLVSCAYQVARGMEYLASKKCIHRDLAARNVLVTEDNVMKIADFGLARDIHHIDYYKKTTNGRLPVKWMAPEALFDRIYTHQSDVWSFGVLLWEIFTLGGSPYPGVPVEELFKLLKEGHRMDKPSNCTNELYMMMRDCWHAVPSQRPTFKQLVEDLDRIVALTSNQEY

[3] = Human liver microsome (HLM) assay; format: in vitro ADME; details: human liver microsomes, 5 μM test compound
Outline: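 LC-MS quantified test compound remaining after 0 and 2 h incubation with human liver microsomes. Triplicate samples, clarified by 10 min centrifugation at 14000 g.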

[4] = Determination of inhibitor concentration in mouse plasma after intraperitoneal and oral dosing; format: in vivo; details: PO, 25 mg/kg; for AUClast / plasma half-life (T1/2) / Cmax: vehicle PEG400:H2O pH 2.3 30:70; for concentration at 7 h: female, vehicle PEG400:H2O pH 2.3 30:70, read-out: Cmin (7 hr conc.)
Outline: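 Plasma levels quantified by HPLC or LC-MS using a standard curve prepared in mouse plasma, following ethyl acetate extraction with internal standard and sodium hydroxide. Sampling at 0.5, 1, 4 h (ocular bleed) and 7 h (cardiac puncture) after oral or intraperitoneal dosing.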

**Q.** Which results are given for `Oc1ccc(-c2ccc3c(/C=C/c4ccccc4)n[nH]c3c2)cc1OCc1ccccc1` [Example 1(b), 3-(E-Styryl)-6-(3-benzyloxy-4-hydroxy-phenyl)-1H-indazole]?
**A.** Ki (human CHK1 (FL-CHK1); read-out: CHK-1 Ki): 1400 nM; Ki (CDK2/Cyclin A; Table 1): 4 µM; IC50 ([1]; read-out: HUVEC IC50): > 1000 nM; Ki (CDK4/Cyclin D3 complex): 1300 nM; Ki [2]: 2.2 nM

**Q.** Which inhibition at 20 µM (human CHK1 (FL-CHK1); read-out: CHK-1 % inhibition, @20 μM) does the source give for `COc1cc(-c2ccc3c(-c4ccc5ccccc5c4)n[nH]c3c2)ccc1O` [Example 2(a), 3-(Naphthalen-2-yl)-6-(3-methoxy-4-hydroxy-phenyl)-1H-indazole] here?
**A.** Its inhibition at 20 µM is 61%.

**Q.** And the Ki (CDK2/Cyclin A; Table 1)?
**A.** Its Ki is 0.61 µM.

**Q.** And the IC50 ([1]; read-out: HUVEC IC50)?
**A.** The IC50 was > 1000 nM.

**Q.** And the Ki (CDK4/Cyclin D3 complex)?
**A.** Its Ki is 1600 nM.

**Q.** What about the Ki [2] of the same compound?
**A.** The Ki was 40 nM.

**Q.** For `COc1cc(-c2ccc3c(-c4cc(OC)c(OC)c(OC)c4)n[nH]c3c2)ccc1O` [Example 2(c), 3-(3,4,5-Trimethoxyphenyl)-6-(3-methoxy-4-hydroxy-phenyl)-1H-indazole], which Ki (CDK2/Cyclin A; Table 1, μM) is on record?
**A.** The Ki was 50 µM.

**Q.** And the Ki (CDK4/Cyclin D3 complex)?
**A.** Its Ki is 26000 nM.

**Q.** What about the Ki [2] of the same compound?
**A.** The Ki was 2600 nM.

**Q.** With `Cc1cccc(C(=O)Nc2cccc(Oc3ccc4c(/C=C/c5ccccc5)n[nH]c4c3)c2)c1` [Example 5(b), 3-Methyl-N-[3-(3-styryl-1h-indazol-6-yloxy)-phenyl]-benzamide] as the compound, how does the Ki (human FGF-R1) read?
**A.** Its Ki is 14 nM.

**Q.** What does the source list for `CN(c1cccc(N)c1)c1ccc2c(/C=C/c3ccccc3)n[nH]c2c1` [Example 11, N-Methyl-N-(3-styryl-1H-indazol-6-yl)-benzene-1,3-diamine]?
**A.** Ki (human FGF-R1): 34000 nM; Ki [2]: 12 nM

**Q.** With `COCCc1cc(O)ccc1-c1ccc2c(-c3nc4ccccc4[nH]3)n[nH]c2c1` [Example 24(h), 3-1H-Benzoimidazol-2-yl-6-(2-(2-methoxyethyl)-4-hydroxyphenyl)-1H-indazole] as the compound, how does the Ki (CDK2/Cyclin A; Table 2) read?
**A.** Its Ki is 0.054 µM.

**Q.** And the Ki (CDK4/Cyclin D3 complex)?
**A.** The Ki was 53 nM.

**Q.** Which results are given for `Cc1cc(O)cc(C)c1-c1ccc2c(-c3nc4ccccc4[nH]3)n[nH]c2c1` [Example 24(j), 3-1H-Benzoimidazol-2-yl-6-(2,6-dimethyl-4-hydroxyphenyl)-1H-indazole]?
**A.** Ki (CDK2/Cyclin A; Table 2): 2.1 µM; Ki (CDK4/Cyclin D3 complex): 320 nM

**Q.** What does the source list for `COc1cc(-c2ccc3c(-c4nc5ccccc5[nH]4)n[nH]c3c2)c(CO)cc1O` [Example 24(n), 3-1H-Benzoimidazol-2-yl-6-(2-(hydroxymethyl)-5-methoxy-4-hydroxy-phenyl)-1H-indazole]?
**A.** Ki (CDK2/Cyclin A; Table 2): 0.035 µM; Ki (CDK4/Cyclin D3 complex): 19 nM

**Q.** For `Oc1cccc(-c2ccc3c(-c4nc5ccccc5[nH]4)n[nH]c3c2)c1` [Example 24(o), 3-1H-Benzoimidazol-2-yl-6-(3-hydroxyphenyl)-1H-indazole], which Ki (CDK2/Cyclin A; Table 2) is on record?
**A.** The Ki was 0.029 µM.

**Q.** What about the Ki (CDK4/Cyclin D3 complex) of the same compound?
**A.** Its Ki is 200 nM.

**Q.** With `COc1c(O)cccc1-c1ccc2c(-c3nc4ccccc4[nH]3)n[nH]c2c1` [Example 24(p), 3-1H-Benzoinidazol-2-yl-6-(2-methoxy-3-hydroxyphenyl)-1H-indazole] as the compound, how does the Ki (CDK2/Cyclin A; Table 2) read?
**A.** Its Ki is 0.089 µM.

**Q.** What about the Ki (CDK4/Cyclin D3 complex) of the same compound?
**A.** The Ki was 92 nM.

**Q.** What does the source list for `COc1cc(O)ccc1-c1ccc2c(-c3nc4cnccc4[nH]3)n[nH]c2c1` [Example 25(a), 3-(3H-Iniidazo[4,5-c]pyridin-2-yl)-6-(4-hydroxy-2-methoxyphenyl)-1H-indazole]?
**A.** Ki (CDK2/Cyclin A; Table 2): 0.08 µM; Ki (CDK4/Cyclin D3 complex): 21 nM

**Q.** For `COc1cc(O)ccc1-c1ccc2c(-c3nc4c(N5CCN(C)CC5)cccc4[nH]3)n[nH]c2c1` [Example 25(d), 3-[4-(4-Methylpiperazin-1-yl)-1H-benzoinidazol-2-yl]-6-(2-methoxy-4-hydroxyphenyl)-1H-indazole], which Ki (CDK2/Cyclin A; Table 2) is on record?
**A.** The Ki was 0.16 µM.

**Q.** What about the Ki (CDK4/Cyclin D3 complex) of the same compound?
**A.** Its Ki is 98 nM.

**Q.** What does the source list for `COc1cc(O)ccc1-c1ccc2c(-c3nc4c(SCCO)cccc4[nH]3)n[nH]c2c1` [Example 25(f), 3-[4-(2-Hydroxyethylsulfanyl)-1H-benzoimidazol-2-yl]-6-(2-methoxy-4-hydroxyphenyl)-1H-indazole]?
**A.** Ki (CDK2/Cyclin A; Table 2): 0.39 µM; Ki (CDK4/Cyclin D3 complex): 1000 nM

**Q.** Which Ki (CDK2/Cyclin A; Table 2) does the source give for `CNC(=O)c1ccc2[nH]c(-c3n[nH]c4cc(-c5ccc(O)cc5OC)ccc34)nc2c1` [Example 25(g), 3-(5-Methylcarbamoyl-1H-benzoimidazol-2-yl)-6-(2-methoxy-4-hydroxyphenyl)-1H-indazole] here?
**A.** Its Ki is 0.08 µM.

**Q.** And the Ki (CDK4/Cyclin D3 complex)?
**A.** The Ki was 21 nM.

**Q.** With `COc1cc(O)ccc1-c1ccc2c(-c3nc4cc(N(C)C)ccc4[nH]3)n[nH]c2c1` [Example 25(h), 3-(5-Dimethylamino-1H-benzoimidazol-2-yl)-6-(2-methoxy-4-hydroxy-phenyl)-1H-indazole] as the compound, how does the Ki (CDK2/Cyclin A; Table 2) read?
**A.** The Ki was 0.17 µM.

**Q.** And the Ki (CDK4/Cyclin D3 complex)?
**A.** The Ki was 24 nM.

**Q.** Which Ki (CDK2/Cyclin A; Table 2) does the source give for `COc1cc(O)ccc1-c1ccc2c(-c3nc4ccc(S(N)(=O)=O)cc4[nH]3)n[nH]c2c1` [Example 25(i), 3-(5-Aminosulfonyl-1H-benzoimidazol-2-yl)-6-(2-methoxy-4-hydroxy-phenyl)-1H-indazole] here?
**A.** The Ki was 0.021 µM.

**Q.** What about the Ki (CDK4/Cyclin D3 complex) of the same compound?
**A.** The Ki was 20 nM.

**Q.** Which Ki (CDK2/Cyclin A; Table 2) does the source give for `CNC(=O)c1cccc2[nH]c(-c3n[nH]c4cc(-c5ccc(O)cc5OC)ccc34)nc12` [Example 25(j), 3-(4-Methylcarbamoyl-1H-benzoinidazol-2-yl)-6-(2-methoxy-4-hydroxy-phenyl)-1H-indazole] here?
**A.** The Ki was 0.079 µM.

**Q.** What about the Ki (CDK4/Cyclin D3 complex) of the same compound?
**A.** The Ki was 16 nM.

**Q.** What does the source list for `Clc1ccc(/C=C/c2n[nH]c3cc(-c4ccncc4)ccc23)cc1` [Example 29(c), 6-Pyrid-4-yl-3-E-[2-(4-chlorophenyl)ethenyl]-1H-indazole]?
**A.** Ki (CDK2/Cyclin A; Table 3): 2.2 µM; Ki (CDK4/Cyclin D3 complex): 2000 nM

**Q.** Which “% remain (HLM, 2 h)” value [3] does the source give for `C=CCn1nc(C)cc1C(=O)Nc1cc(C(=O)c2ccc3c(/C=C/c4ccccn4)n[nH]c3c2)ccc1C` [Example 41(ff), 6-[3-((1-Allyl-3-methyl-1H-pyrazol-5-yl)carboxamido)-4-methylbenzoyl]-3-E-[2-(pyridin-2-yl)ethenyl]-1H-indazole] here?
**A.** Its value is 68%.

**Q.** And the AUClast [4]?
**A.** Its AUClast is 9176 ng·h/mL.

**Q.** And the “plasma half-life (T1/2)” value [4]?
**A.** Its value is 2.0 h.

**Q.** What about the concentration at 7 h [4] of the same compound?
**A.** The concentration at 7 h was 410 ng/mL.

**Q.** And the Ki (human FGF-R1)?
**A.** The Ki was 12 nM.

**Q.** Which results are given for `CC(=O)Nc1cc(C(=O)c2ccc3c(/C=C/c4ccccn4)n[nH]c3c2)ccc1C` [Example 41(gg), 6-(3-Acetamido-4-methylbenzoyl)-3-E-[2-(pyridin-2-yl)ethenyl]-1H-indazole]?
**A.** AUClast [4]: 2692 ng·h/mL; Cmax [4]: 2079 ng/mL; plasma half-life (T1/2) [4]: 1.1 h; concentration at 7 h [4]: 29 ng/mL; Ki (human FGF-R1): 3.5 nM

**Q.** What does the source list for `Cc1cc(C(=O)Nc2cccc(C(=O)c3ccc4c(/C=C/c5ccccn5)n[nH]c4c3)c2)n(C(C)C)n1` [Example 41(x), 6-[3-((1-Isopropyl-3-methyl-1H-pyrazol-5-yl)carboxamido)benzoyl]-3-E-[2-(pyridin-2-yl)ethenyl]-1H-indazole]?
**A.** AUClast [4]: 24174 ng·h/mL; Cmax [4]: 4587 ng/mL; plasma half-life (T1/2) [4]: 4.2 h; concentration at 7 h [4]: 1270 ng/mL; Ki (human FGF-R1): 3.4 nM

**Q.** For `CCn1nc(C)cc1C(=O)Nc1cc(Nc2ccc3c(/C=C/c4ccccn4)n[nH]c3c2)c(F)cc1C` [Example 48(a), 6-[N-(5-((1-Ethyl-3-methyl-1H-pyrazol-5-yl)carboxanido)-2-fluoro-4-methylphenyl)amino]-3-E-[2-(pyridin-2-yl)ethenyl]-1H-indazole], which IC50 ([1]; + albumin, read-out: HUVEC + albumin IC50) is on record?
**A.** The IC50 was 8.8 nM.

**Q.** And the “% remain (HLM, 2 h)” value [3]?
**A.** Its value is 55%.

**Q.** What about the Ki (human FGF-R1) of the same compound?
**A.** The Ki was 14 nM.

**Q.** What about the Ki [2] of the same compound?
**A.** Its Ki is 0.37 nM.
